In data set [1] the test system is Cricetinae gen. sp. The data set is described as follows: […] effect on LDL cholesterol (LDL-C) level in fat-fed hamsters treated for 10 days at 200 umol/kg/day. It counts as functional, Cricetulus griseus.
For data set [2], the system named is Cricetinae gen. sp. The experiment in a line: […] effect on total plasma cholesterol(TC) level in fat-fed hamsters treated for 10 days at 200 umol/kg/day. It counts as functional, Cricetulus griseus.
Data set [3] has as its target T1, Lanosterol synthase (Homo sapiens, UniProt P48449).
T1 sequence (P48449 whole entry): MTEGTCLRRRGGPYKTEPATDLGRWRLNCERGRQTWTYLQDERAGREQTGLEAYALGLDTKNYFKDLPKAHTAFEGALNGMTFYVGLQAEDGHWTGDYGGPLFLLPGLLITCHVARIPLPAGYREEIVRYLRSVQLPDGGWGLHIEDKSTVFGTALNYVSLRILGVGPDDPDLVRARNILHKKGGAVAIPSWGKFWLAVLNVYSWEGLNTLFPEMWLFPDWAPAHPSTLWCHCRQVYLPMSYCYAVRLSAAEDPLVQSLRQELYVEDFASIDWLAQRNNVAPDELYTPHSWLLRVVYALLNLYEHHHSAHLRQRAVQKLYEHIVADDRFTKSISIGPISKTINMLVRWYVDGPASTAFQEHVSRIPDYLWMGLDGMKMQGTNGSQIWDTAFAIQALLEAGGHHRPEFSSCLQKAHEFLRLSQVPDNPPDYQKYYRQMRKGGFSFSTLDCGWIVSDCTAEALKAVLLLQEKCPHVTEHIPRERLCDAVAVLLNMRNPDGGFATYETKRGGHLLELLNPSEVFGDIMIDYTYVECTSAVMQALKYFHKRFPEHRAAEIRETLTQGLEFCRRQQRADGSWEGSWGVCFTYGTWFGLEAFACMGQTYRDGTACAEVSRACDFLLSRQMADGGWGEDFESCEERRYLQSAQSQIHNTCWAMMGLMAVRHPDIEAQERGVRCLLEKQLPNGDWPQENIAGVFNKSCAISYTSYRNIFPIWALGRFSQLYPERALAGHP

Data set [4] addresses T2, Lanosterol synthase (Homo sapiens) (UniProt P48449).
T2 sequence (whole entry): T1 sequence (P48449 whole entry)
Particulars: at 100 nM.

Data set [5] concerns the target T1, Lanosterol synthase. The data set is described as follows: In vitro inhibition of human 2,3-oxidosqualene cyclase.

For the compound `C=CCN(C)CCCCCCOc1ccc(C(=O)c2ccc(Br)cc2)c(F)c1.O=C(O)/C=C/C(=O)O`, in the data set on Cricetinae gen. sp. [1], the LDL-C is -27%. For the same compound, in the data set on Cricetinae gen. sp. [2], the TC is -41%.
Regarding `C=CCN(C)CCCCCCOc1ccc2c(-c3ccc(Br)cc3)nccc2c1.Cl`, the LDL-C with Cricetinae gen. sp. [1] was -14%.
Regarding `C=CCN(C)CCCCCCOc1ccc2c(c1)CCN=C2c1ccc(Br)cc1`, the IC50 – broadly, the point on the concentration scale where inhibition reaches its midpoint – at Lanosterol synthase [3] came to 7.9 nM.
As for `C=CCN(C)CCCCCCOc1ccc(-c2nsc3cc(Br)ccc23)cc1`, the inhibition (usually the relative decrease from the control value, in per cent) in data set [4] is 5%.
As for `CN(CCCCCCOc1ccc(C(=O)c2ccc(Br)cc2)cc1)CC1CC1`, the pKa (in general, the negative logarithm of the acid dissociation constant) in “physchem” amounted to 9.37.
The compound `CN(CCCO)CCCCCCOc1ccc(C(=O)c2ccc(Br)cc2)cc1` registered an IC50 on Lanosterol synthase [3] of 15.7 nM. In the data set “physchem”, this compound came in with a pKa of 9.05.
`C=CCN(C)CCCCCCOc1ccc2c(-c3ccc(Br)cc3)csc2c1` gave a half-maximal inhibitory concentration (IC50) against Lanosterol synthase [3] of 5.6 nM.
Compound `C=CCN(C)CCCCCCOc1ccc2c(-c3ccc(Br)cc3)noc2c1` registered an inhibition in data set [4] of 21%.
The compound `C=CCN(C)CCCCCCOc1ccc(C(=O)c2ccc([N+](=O)[O-])cc2)cc1` gave an IC50 on Lanosterol synthase [5] of 1.9 nM.
As to `C=CCN(C)CCCCCCOc1ccc2c(-c3ccc(Br)cc3)nsc2c1.O=C(O)/C=C/C(=O)O`, the LDL-C with Cricetinae gen. sp. [1] is given as -33%. The TC with Cricetinae gen. sp. [2] is recorded as -36%.
In the case of `C=CCN(C)CCCCCCOc1ccc(C(=O)c2ccc(F)cc2)cc1.Cl`, the LDL-C with Cricetinae gen. sp. [1] is recorded as -24%. In addition, in the data set with Cricetinae gen. sp. [2], the TC was -40%. Further, half-maximal inhibition against Lanosterol synthase [3] (IC50) required 6.7 nM.
With `C=CCN(C)CCCCCCOc1ccc(C(=O)c2ccc(Br)cc2)cc1.O=C(O)/C=C/C(=O)O`, in the data set on Cricetinae gen. sp. [1], the LDL-C is -25%. In addition, the TC in the data set on Cricetinae gen. sp. [2] is reported as -27%. This compound also showed a pKa in “physchem” of 8.18.
Regarding `CN(CCCCCCOc1ccc(C(=O)c2ccc(Br)cc2)cc1)C1CC1`, the IC50 at Lanosterol synthase [3] stood at 35.3 nM. The pKa in “physchem” is 7.48.
On to `C=CCN(C)CCCCCCOc1ccc2c(c1)S(=O)(=O)N=C2c1ccc(Br)cc1`, for which, on Lanosterol synthase [3], the IC50 came out at 7.8 nM.
The same measure, in the same setting: then `C=CCN(C)CCCCCCOc1ccc2c(c1)OCC=C2c1ccc(Br)cc1`, with 11.4 nM; and `C=CCN(C)CCCCCCOc1ccc(C(=O)c2ccc(Br)cc2)c(SC)c1`, with 6.2 nM; and `C=CCN(C)CCCCCCOc1ccc(C(=O)c2ccc(Br)cc2)cn1`, with 8.7 nM.
Consider `C=CCN(C)CCCCCCOc1ccc2c(-c3ccc(Br)cc3)coc2c1`, for which the inhibition in data set [4] worked out at 14%.
For `Br.C=CCN(C)CCCCCCOc1ccc(C(=O)c2ccccc2)cc1`, the LDL-C in the data set with Cricetinae gen. sp. [1] was -12%. This compound registered an IC50 on Lanosterol synthase [3] of 22.5 nM.
On Lanosterol synthase [3], `C=CCN(C)CCCCCCOc1ccc(C(=O)c2ccc(Br)cc2)c(NC)c1` had an IC50 of 4.1 nM.
On to `C=CCN(C)CCCCCCOc1ccc2c(c1)CON=C2c1ccc(Br)cc1.O=C(O)/C=C/C(=O)O`, for which the LDL-C with Cricetinae gen. sp. [1] is listed as -3%.
On Lanosterol synthase [3], `C=CCN(C)CCCCCCOc1ccc(C(=O)c2ccc(Br)cc2)c(O)c1` came in with an IC50 of 6.3 nM.
For `C=CCN(C)CCCCCCOc1ccc(C(=O)c2ccc(Br)cc2)c(OC)c1`, the IC50 at Lanosterol synthase [3] was determined as 4.6 nM.

Values taken from ChEMBL document CHEMBL1145858, “Synthesis and structure-activity studies of novel orally active non-terpenoic 2,3-oxidosqualene cyclase inhibitors” (J Med Chem, 2003).
